Experimental data published in ChEMBL document CHEMBL1240300, “Diversity-oriented synthesis: exploring the intersections between chemistry and biology” (Nat Chem Biol, 2005).
One block for each compound: values may come before it.

How the values were obtained:
C3H 10T1/2 = test: Induction of osteogenesis in mouse C3H10T1/2 cells assessed as induction of osteoblast specific marker alkaline phosphatase by immunofluorescence method; type: functional, cell-based
[1] = molecular target: T1, Glycogen synthase kinase-3 beta (Mus musculus, UniProt Q9WV60); test: Inhibition of GSK-3 beta in mouse D3 cells; type: cell-based
T1 sequence (Q9WV60 whole entry): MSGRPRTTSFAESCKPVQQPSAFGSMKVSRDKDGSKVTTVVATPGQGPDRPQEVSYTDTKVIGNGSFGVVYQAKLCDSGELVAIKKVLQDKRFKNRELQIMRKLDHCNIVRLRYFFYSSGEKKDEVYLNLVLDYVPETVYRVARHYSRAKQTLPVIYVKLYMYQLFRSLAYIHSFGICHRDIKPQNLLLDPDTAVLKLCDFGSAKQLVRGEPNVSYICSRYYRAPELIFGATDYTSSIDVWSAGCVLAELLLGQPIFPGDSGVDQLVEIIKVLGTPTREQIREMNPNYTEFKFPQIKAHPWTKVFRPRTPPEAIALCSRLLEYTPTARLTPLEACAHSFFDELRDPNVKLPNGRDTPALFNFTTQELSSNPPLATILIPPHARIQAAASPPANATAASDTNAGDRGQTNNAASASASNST

[2] = molecular target: T1, Glycogen synthase kinase-3 beta; test: Inhibition of GSK-3 beta in mouse D3 cells assessed as induction of neuron specific marker neurofilament-M by immunofluorescence method; type: cell-based
[3] = molecular target: Myc proto-oncogene protein/Transcription factor AP-1 (Gallus gallus, UniProt P01109+P18870); test: Inhibition of Myc-Jun protein - protein interaction in chicken embryo fibroblasts assessed as inhibition of cell focus formation11
Myc proto-oncogene protein/Transcription factor AP-1, sequence (P18870 whole entry): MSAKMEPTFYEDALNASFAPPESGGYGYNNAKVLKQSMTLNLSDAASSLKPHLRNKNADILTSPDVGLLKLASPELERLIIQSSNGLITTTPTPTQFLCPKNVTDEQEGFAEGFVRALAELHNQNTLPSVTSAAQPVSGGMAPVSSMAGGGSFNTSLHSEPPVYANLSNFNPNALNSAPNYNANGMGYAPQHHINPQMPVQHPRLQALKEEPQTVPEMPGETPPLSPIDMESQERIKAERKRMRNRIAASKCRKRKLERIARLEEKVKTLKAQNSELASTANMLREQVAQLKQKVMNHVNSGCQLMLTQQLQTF
Myc proto-oncogene protein/Transcription factor AP-1, sequence (P01109 whole entry): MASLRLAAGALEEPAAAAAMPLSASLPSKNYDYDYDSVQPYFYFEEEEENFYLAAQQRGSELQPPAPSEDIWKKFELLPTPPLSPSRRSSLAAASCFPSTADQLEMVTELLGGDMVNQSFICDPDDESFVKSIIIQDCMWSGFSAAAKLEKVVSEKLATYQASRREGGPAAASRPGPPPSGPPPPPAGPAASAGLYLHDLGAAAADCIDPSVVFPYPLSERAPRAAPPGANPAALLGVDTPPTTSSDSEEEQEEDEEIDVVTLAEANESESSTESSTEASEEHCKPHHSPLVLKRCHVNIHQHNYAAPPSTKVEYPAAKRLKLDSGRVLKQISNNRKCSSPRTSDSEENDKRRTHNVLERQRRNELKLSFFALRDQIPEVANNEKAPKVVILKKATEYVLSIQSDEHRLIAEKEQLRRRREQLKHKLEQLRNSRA

[4] = molecular target: T1, Glycogen synthase kinase-3 beta; test: Inhibition of GSK-3 beta in mouse D3 cells assessed as induction of neuron specific marker microtubule-associated protein 2 by immunofluorescence method; type: cell-based
[5] = molecular target: T1, Glycogen synthase kinase-3 beta; test: Inhibition of GSK-3 beta in mouse D3 cells assessed as induction of neuron specific marker beta3-tubulin by immunofluorescence method; type: cell-based
[6] = molecular target: T1, Glycogen synthase kinase-3 beta; test: Binding affinity to GSK-3 beta in mouse D3 cells; type: cell-based
Histone deacetylase = test: Inhibition of HDAC in human A549 cells assessed as induction of histone acetylation by fluorescence microscopy; type: cell-based
[7] = Induction of cardiomyogenesis in mouse D3 cells assessed as induction of cadiomyocyte specific marker MEF2 by immunofluorescence method; type: functional, cell-based
[8] = Induction of cardiomyogenesis in mouse D3 cells assessed as induction of cadiomyocyte specific marker myosin heavy chain by immunofluorescence method; type: functional, cell-based
[9] = Binding affinity to yeast Ure2p; parameters: species or system Saccharomyces cerevisiae

Compound: c1ccc2c(Oc3nc(Nc4ccc(N5CCOCC5)cc4)c4ncn(C5CCCCC5)c4n3)cccc2c1 [PURMORPHAMINE]
EC50 (C3H 10T1/2): 1000 nM

Compound: Nc1cccc(-c2cc3c(Oc4cccc(O)c4)ncnc3[nH]2)c1
Kd [1]: 126 nM
EC50 [2]: 1000 nM
IC50 [3]: 15 µM
EC50 [4]: 1000 nM
EC50 [5]: 1000 nM
IC50 [6]: 30 nM

Compound: Nc1ccccc1NC(=O)CCCCCC(=O)Nc1cccc([C@@H]2O[C@H](CN3CCN(Cc4ccccc4)CC3)C[C@H](c3ccc(CO)cc3)O2)c1 [HISTACIN]
EC50 (Histone deacetylase): 34 µM

Compound: COc1ccc(Nc2nccc(NCCO)n2)cc1 [CARDIOGENOL C]
EC50 [7]: 100 nM
EC50 [8]: 100 nM

The remaining lines, values ahead:

Kd [9]: 18.1 µM
Compound: NCc1ccc([C@H]2O[C@@H](CSc3nc(-c4ccccc4)c(-c4ccccc4)o3)[C@H](c3ccccc3)[C@@H](c3ccc(CO)cc3)O2)cc1 [URETUPAMINE A]

Kd [9]: 7.5 µM
Compound: NCc1ccc([C@H]2O[C@@H](CSc3nc(-c4ccccc4)c(-c4ccccc4)o3)C[C@@H](c3ccc(CO)cc3)O2)cc1 [URETUPAMINE B]
